Assay results from publication PMC4888459 (Biochemical Journal, 2016).

What was measured:
[1] = target: AgD from S. mutans (agmatine deiminase) (Streptococcus mutans, UniProt Q8DW17); assay: IC50 plot; format: biochemical
[2] = target: agmatine deiminase (AgD) (Listeria monocytogenes, UniProt A0A0H3G8U9); assay: IC50, colorimetric; format: biochemical
[3] = substrate: N=C(N)NCCCCN; assay: purified protein; format: biochemical, Listeria monocytogenes; details: active site (Cys356, His216; Asp94 and Asp218 believed to orient the substrate)

Chain of AgD from S. mutans (agmatine deiminase) (Q8DW17 whole entry): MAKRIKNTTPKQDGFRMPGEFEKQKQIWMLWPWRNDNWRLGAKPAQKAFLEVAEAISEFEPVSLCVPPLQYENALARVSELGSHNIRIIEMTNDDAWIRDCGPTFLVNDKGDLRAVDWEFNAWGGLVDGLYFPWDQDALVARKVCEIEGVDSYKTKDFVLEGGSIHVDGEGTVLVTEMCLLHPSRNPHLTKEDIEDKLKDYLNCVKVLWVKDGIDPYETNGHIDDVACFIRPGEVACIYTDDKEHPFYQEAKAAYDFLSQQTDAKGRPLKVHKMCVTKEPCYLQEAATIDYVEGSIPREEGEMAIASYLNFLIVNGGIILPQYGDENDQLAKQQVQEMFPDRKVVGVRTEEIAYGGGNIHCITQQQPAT

Row | Molecule | IC50 [2] | further results
1 | N=C(N)CCl [2-chloroacetamidine] | – | IC50 [1]: 400 ± 100 µM
2 | N=C(CCl)NCCCCN [ABCA, N-(4-aminobutyl)-2-chloro-ethanimidamide] | 78.5 ± 1.7 µM | –
3 | N=C(CF)NCCCCN [ABFA, N-(4-aminobutyl)-2-fluoro-ethanimidamide] | 146 ± 15 µM | –
4 | agmatine deiminase (AgD) (Listeria monocytogenes 10403S) (protein) MRTIDSSSKKDGFRMPGEFEKHAGCYIIWPERPDNWRLGAKPAQKAFVDVATAISHFEPVTVVASSSQYVNARYMLSDEIRVVEMDNDDAWVRDSGPTFVVNDSGDVRGVDWSFNSWGGLVDGLYFPWDKDDQVAQKICELERKDRYRLADFVLEGGSIHVDGEGTLVTTEECLLSEGRNPQLSKQQIEMVLKEYLNLEKIIWLKRGIYLDETNGHVDNIFNYVRPGVVALAWTDDETDPQYEISKECFDILSNETDAKGRKLEVHKINVPKPILITDEESKGVDAVEGTLPREEGDRLAASYINYYTANGGVIFPLFGDPNDELAREKLQQLYPNCEVVGVKAREILLGGGNIHCITQQVPRG | – | Km [3]: 330 ± 90.0 µM
